Here are results for three compounds from PMC7558026, “Exploring and applying the substrate promiscuity of a C-glycosyltransferase in the chemo-enzymatic synthesis of bioactive C-glycosides” (Nature Communications, 2020).

“And” between values parts separate entries of the source, which are not always exact repeats. Equal entries are not always repeated. “Also recorded” adds a separate entry of the source.

The test system of one assay is alloxan-induced DM mice. The assay is described as follows: Hypoglycemic effect in alloxan-induced diabetic mellitus (DM) mice. The class given is in vivo. The following applies: for OD505nm (nonfasting blood glucose): individual mice. On the procedure: Type 1 diabetes mellitus (T1DM) mice were established by intravenous injection of alloxan tetrahydrate (68 mg kg^‒1 BW). […] Nonfasting blood glucose was kinetically monitored at 1, 2, 4, 6, 8, 24, and 48 h after treatment with 46a.

The subject of the next assay is ICR mice. Kind of assay: Oral glucose-tolerance test (OGTT) in normal ICR mice. The following applies: for OD505nm (blood glucose, GOD assay) in OGTT: individual mice. The format is in vivo. The method, then:
The hypoglycemic effect of 46a was firstly evaluated by oral glucose-tolerance test (OGTT) in mice with normal blood glucose levels. Male Institute of Cancer Research (ICR) mice weighing 24–26 g were obtained from Beijing Vital River Laboratory Animal Technology Co., Ltd (Beijing, China) and divided into three groups (n = 7–8). […] After 2 h of fasting, blood samples were collected from the tails for determination of baseline values of blood glucose (0 min). The mice were then orally administered glucose (2 g kg^‒1 BW), and blood samples were collected at 15, 30, 60, and 120 min. A glucose oxidase (GOD) assay was used for blood glucose-level measurement. The values of area under the glucose-time curve (AUC) were calculated.

The next assay concerns the target T1, SGLT1 (Homo sapiens, UniProt P13866).
T1 construct: The full-length SGLT1 cDNA was obtained by PCR with forward primer; expressed in transfected cells
T1 sequence (P13866 1-664): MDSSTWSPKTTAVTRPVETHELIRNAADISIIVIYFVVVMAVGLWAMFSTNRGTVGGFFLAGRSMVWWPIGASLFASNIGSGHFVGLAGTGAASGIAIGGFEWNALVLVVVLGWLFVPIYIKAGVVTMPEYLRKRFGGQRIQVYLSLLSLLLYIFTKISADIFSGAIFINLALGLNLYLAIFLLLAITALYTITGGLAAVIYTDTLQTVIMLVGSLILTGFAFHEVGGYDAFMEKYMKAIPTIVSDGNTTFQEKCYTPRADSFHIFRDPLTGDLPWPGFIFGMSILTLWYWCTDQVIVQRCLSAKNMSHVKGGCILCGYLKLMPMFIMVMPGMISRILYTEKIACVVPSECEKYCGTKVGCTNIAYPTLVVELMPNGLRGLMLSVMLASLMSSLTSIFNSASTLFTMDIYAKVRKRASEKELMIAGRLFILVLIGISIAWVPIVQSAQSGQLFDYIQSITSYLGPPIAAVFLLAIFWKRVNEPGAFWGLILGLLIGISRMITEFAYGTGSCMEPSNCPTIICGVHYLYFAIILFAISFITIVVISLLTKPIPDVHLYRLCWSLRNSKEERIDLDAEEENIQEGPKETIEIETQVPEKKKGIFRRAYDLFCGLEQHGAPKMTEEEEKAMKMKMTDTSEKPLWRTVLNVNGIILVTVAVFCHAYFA
Kind of assay: 1-NBDG uptake in HEK293 cells stably expressing SGLT1. The format is cell-based. The following applies: HEK293, compound at 10 μM; triplicate; read-out: SGLT1 inhibitory rates.

For another assay, the target named is T2, SGLT2 (Homo sapiens, UniProt P31639).
T2 construct: Human full-length SGLT2 cDNA (NM_003041.3) was synthesized; expressed in transfected cells; host or cells: HEK293, retroviral transduction with pMSCVpuro-SGLT2, puromycin selected
T2 sequence (P31639 1-672): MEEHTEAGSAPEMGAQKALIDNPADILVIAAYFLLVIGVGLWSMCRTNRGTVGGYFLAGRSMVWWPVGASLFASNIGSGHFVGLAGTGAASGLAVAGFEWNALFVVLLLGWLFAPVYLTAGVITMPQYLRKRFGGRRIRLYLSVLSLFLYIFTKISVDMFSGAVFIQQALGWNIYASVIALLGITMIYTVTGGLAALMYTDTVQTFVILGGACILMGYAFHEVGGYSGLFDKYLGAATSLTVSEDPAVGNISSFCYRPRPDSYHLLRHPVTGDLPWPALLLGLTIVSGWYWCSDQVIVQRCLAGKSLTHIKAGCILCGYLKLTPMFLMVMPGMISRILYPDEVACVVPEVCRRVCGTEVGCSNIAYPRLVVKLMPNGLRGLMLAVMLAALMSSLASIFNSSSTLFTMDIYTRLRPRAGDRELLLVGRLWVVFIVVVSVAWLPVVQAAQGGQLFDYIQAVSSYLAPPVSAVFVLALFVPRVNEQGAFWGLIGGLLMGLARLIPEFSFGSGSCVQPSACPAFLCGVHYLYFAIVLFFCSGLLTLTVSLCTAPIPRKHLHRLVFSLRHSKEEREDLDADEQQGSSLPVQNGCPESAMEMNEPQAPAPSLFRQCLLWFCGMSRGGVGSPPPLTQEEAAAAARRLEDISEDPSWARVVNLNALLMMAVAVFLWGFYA
The assay is described as follows: 1-NBDG uptake in HEK293 cells stably expressing SGLT2. The format is cell-based.

Assay [1] concerns KKAy mice. Kind of assay: Hypoglycemic effect in T2DM KKAy mice, blood glucose. The format is in vivo. The conditions noted are these: for blood glucose: individual mice. On the procedure: (§1) To evaluate the hypoglycemic effect of 46a in type 2 diabetes mellitus (T2DM), female KKAy mice weighing 42–48 g were obtained from the Animal Center of the Institute of Laboratory Animal Sciences, Chinese Academy of Medical Sciences and Peking Union Medical College. […] Blood samples were collected at 1, 2, 4, 6, 8, 24, and 48 h after treatment. […] The glucose levels in urine 4 h and 6 h after administration were also determined using a Biosen C-Line Glucose analyzer (EKF Diagnostics, Germany).

The subject of assay [2] is KKAy mice. The assay is described as follows: Urinary glucose excretion in T2DM KKAy mice. The following applies: for glucose in urine: 46a 100 mg kg^‒1 or dapagliflozin 5mg/kg, individual mice. The format is in vivo. On the procedure: as §1
A further assay addresses AbCGT (Aloe vera, UniProt A0A7G9P699). Kind of assay: Sugar donor promiscuity of AbCGT with phloretin (17) as acceptor. The following applies: sugar donor with phloretin (17) as acceptor; Reaction-1 to -3. The format is biochemical, Aloe barbadensis. The method, then:
The reaction mixture contained 0.5 mM sugar donors (1.0 mM for di-glycosylation), 0.25 mM aglycons, 50 mM Tris-HCl (pH 7.4), and 50‒100 μg of purified AbCGT in a final volume of 100 μL. Due to the instability of some acceptors in the buffer of pH 11.0, the reactions were performed under the physiological conditions (pH 7.4, 30 °C) to compare the catalytic activities of AbGT27 with different substrates under the same conditions. The reactions were performed at 30 °C for up to 12 h and terminated by the addition of 200 μL of ice-cold methanol. Subsequently, samples were centrifuged at 15,000 × g for 30 min to collect the supernatant, and aliquots were analyzed by HPLC-UV/ESIMS. HPLC analysis was performed on a Shiseido CAPCELL PAK C18 MG III column (250 mm × 4.6 mm I.D., 5 μm, Shiseido Co., Ltd., Japan) at a flow rate of 1 mL min^‒1. The mobile phase was a gradient elution of solvents A (0.1% formic acid aqueous solution) and B (methanol). The gradient programs were used for the analysis of the reactions (Supplementary Table 6). The conversion rates of the enzyme reactions were calculated from peak areas of glycosylated products and substrates as analyzed by HPLC. To facilitate inferential statistical analysis, three parallel assays were routinely performed; the means ± SD from triplicate analyses are reported here.

Chain of AbCGT (A0A7G9P699 entry or part of it): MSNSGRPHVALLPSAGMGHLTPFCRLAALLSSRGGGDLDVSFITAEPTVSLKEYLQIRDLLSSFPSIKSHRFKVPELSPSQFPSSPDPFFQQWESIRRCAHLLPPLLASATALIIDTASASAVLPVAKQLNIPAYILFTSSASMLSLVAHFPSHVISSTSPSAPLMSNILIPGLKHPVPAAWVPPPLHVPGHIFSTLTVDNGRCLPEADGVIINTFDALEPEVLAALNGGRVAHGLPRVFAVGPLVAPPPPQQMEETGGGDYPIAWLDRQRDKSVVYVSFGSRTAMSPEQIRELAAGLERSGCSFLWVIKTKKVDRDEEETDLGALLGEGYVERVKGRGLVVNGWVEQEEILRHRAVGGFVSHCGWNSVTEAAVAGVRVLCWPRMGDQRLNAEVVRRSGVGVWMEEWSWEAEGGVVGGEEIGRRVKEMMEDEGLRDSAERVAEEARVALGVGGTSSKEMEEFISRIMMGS

Consider `Cc1ccc(Cc2c(O)cc(O)c(C3OC(CO)C(O)C(O)C3O)c2O)cc1` (stereo not drawn) [Compound 46a], for which the “OD505nm (nonfasting blood glucose)” value in the assay on alloxan-induced DM mice (0h, alloxan-induced DM mice, single dose 46a 100 mg kg^‒1 or dapagliflozin 5 mg kg^‒1) is 0.431 and 0.458 and 0.49 and 0.52 and 0.521 and 0.444 and 0.562 and 0.464; in the assay with alloxan-induced DM mice (1h, same doses) it was 0.26 and 0.308 (2×) and 0.339 and 0.305 and 0.23 and 0.256 and 0.248; in the assay with alloxan-induced DM mice (2h, same doses), 0.231 and 0.293 and 0.455 and 0.311 and 0.26 and 0.191 and 0.29 and 0.211; with alloxan-induced DM mice (4h, same doses) it was 0.321 and 0.404 and 0.412 and 0.349 and 0.326 and 0.246 and 0.294 and 0.251; in the assay on alloxan-induced DM mice (8h, same doses) it was 0.424 and 0.434 and 0.432 and 0.559 and 0.489 and 0.42 and 0.457 and 0.316; with alloxan-induced DM mice (24h, same doses), 0.5 and 0.59 and 0.679 and 0.688 and 0.606 and 0.51 and 0.507 and 0.483. Besides, the “OD505nm (nonfasting blood glucose)” value in the assay on alloxan-induced DM mice (48h, same doses) was 0.317 and 0.566 and 0.646 and 0.639 and 0.631 and 0.47 and 0.542 and 0.494. Moreover, the “hypoglycemic activity (in words)” value in the assay with alloxan-induced DM mice (alloxan-induced DM mice, oral single administration) is on record as “exhibited obviously hypoglycemic activity”. Also, the “OD505nm (blood glucose, GOD assay) in OGTT” value with ICR mice (0 min, ICR mice, oral 46a 100 mg kg^‒1 or dapagliflozin 5 mg kg^‒1) was 0.153 and 0.163 and 0.176 and 0.168 and 0.167 and 0.175 and 0.178; with ICR mice (15 min after glucose 2 g kg^‒1, oral 46a 100 mg kg^‒1 or dapagliflozin 5 mg kg^‒1), 0.178 and 0.123 and 0.205 and 0.183 and 0.193 and 0.203 and 0.189; with ICR mice (30 min after glucose, same doses) it was 0.183 and 0.213 and 0.193 and 0.202 and 0.218 and 0.205 and 0.211; in the assay with ICR mice (60 min after glucose, same doses), 0.19 (2×) and 0.208 and 0.2 and 0.178 and 0.187 and 0.202; with ICR mice (120 min after glucose, same doses), 0.169 and 0.181 and 0.185 and 0.187 and 0.178 (2×) and 0.207. The “blood glucose after glucose loading / glucose tolerance (in words)” value in the assay with ICR mice (ICR mice, 100 mg kg^‒1 46a oral) is given as “significantly lowered the peak value of blood glucose after glucose loading; also recorded: enhanced glucose tolerance”. The inhibition at 10 µM was 50.4% at SGLT1 and > 96% on SGLT2 (HEK293, compound at 10 μM, triplicate, read-out: SGLT2 inhibitory rates). The same compound returned an SGLT2 inhibitory rates at SGLT2 (compound at 10 μM, triplicate, 10 µM) of 100%. At SGLT2 (from IC50 values, 46a vs 38a), the “increase of SGLT2 inhibitory activity compared to the unsubstituted glycoside 38a” value is listed as “more than 17 times”. Also, the blood glucose in the assay with KKAy mice [1] (0h, KKAy mice, single dose 46a 100 mg kg^‒1 or dapagliflozin 5 mg kg^‒1) is 391.7 mg/dL and 463.4 mg/dL and 285.8 mg/dL and 498.6 mg/dL and 457.9 mg/dL and 376.2 mg/dL and 436.2 mg/dL; in the assay on KKAy mice [1] (1h, same doses), 205.3 mg/dL and 315 mg/dL and 262 mg/dL and 341.1 mg/dL and 283 mg/dL and 307.9 mg/dL and 329 mg/dL; in the assay with KKAy mice [1] (2h, same doses) it was 212.4 mg/dL and 285.2 mg/dL and 250.2 mg/dL and 371.1 mg/dL and 288 mg/dL and 260.7 mg/dL and 328.6 mg/dL; in the assay on KKAy mice [1] (4h, same doses) it was 205.2 mg/dL and 255.5 mg/dL and 229.1 mg/dL and 299.5 mg/dL and 368.8 mg/dL and 243.8 mg/dL and 201.2 mg/dL; with KKAy mice [1] (6h, same doses), 206.4 mg/dL and 242.8 mg/dL and 220.9 mg/dL and 332.5 mg/dL and 314.8 mg/dL and 301 mg/dL and 171 mg/dL; in the assay with KKAy mice [1] (8h, same doses), 215.9 mg/dL and 255.1 mg/dL and 195.2 mg/dL and 297 mg/dL and 255.7 mg/dL and 245.8 mg/dL and 197.4 mg/dL. The blood glucose in the assay on KKAy mice [1] (24h, same doses) was 269.1 mg/dL and 338.2 mg/dL and 240.2 mg/dL and 308.3 mg/dL and 291.4 mg/dL and 330 mg/dL and 166.4 mg/dL; with KKAy mice [1] (48h, same doses), 250.5 mg/dL and 412.5 mg/dL and 265.3 mg/dL and 242.5 mg/dL and 425.9 mg/dL and 396 mg/dL and 189.5 mg/dL. The “blood glucose level (in words)” value in the assay with KKAy mice [1] (KKAy mice, single administration, vs control (solvent-treated) group) is “decreased at 1 h after 46a administration and was maintained at a lower level for 24 h; also recorded: lowered the blood glucose”. Moreover, the glucose in urine in the assay on KKAy mice [2] (4h) was 11366 mg/dL and 12692 mg/dL and 12124 mg/dL; in the assay on KKAy mice [2] (6h), 8584 mg/dL and 12278 mg/dL and 11404 mg/dL and 9012 mg/dL. Moreover, the “urinary glucose excretion (in words)” value with KKAy mice [2] (single administration) was “elevated urinary glucose excretion; also recorded: promoted urinary glucose excretion”.

Consider `O=C(O)C1OC(OP(=O)(O)OP(=O)(O)OCC2OC(n3ccc(=O)[nH]c3=O)C(O)C2O)C(O)C(O)C1O` [e, UDP-α-D-glucuronic acid], for which, on AbCGT, the “conversion rates, O,N,S-glycosylation” value was determined as 0%; the “conversion rates, di-C-glycosylation” value stood at 0%; the “conversion rates, mono-C-glycosylation” value is 4.8% and 5.3%.

`CC(=O)NC1C(OP(=O)(O)OP(=O)(O)OCC2OC(n3ccc(=O)[nH]c3=O)C(O)C2O)OC(CO)C(O)C1O` (stereo not drawn) [f]: at AbCGT, the “conversion rates, O,N,S-glycosylation” value is given as 0%; the “conversion rates, di-C-glycosylation” value is recorded as 0%; the “conversion rates, mono-C-glycosylation” value is 0%.
